# Measured values as given in article PMC6930638, “The Masked Polar Group Incorporation (MPGI) Strategy in Drug Design: Effects of Nitrogen Substitutions on Combretastatin and Isocombretastatin Tubulin Inhibitors” (Molecules, 2019).
# pIC50: −log10 of the molar value. Read-outs that look alike come from different tables or passages of the source.
# Tests used:
# [1] = Aqueous solubility determination (shake flask, UV); type: physicochemical; settings: for solubility at 48 h: thermodynamic from solid
# Procedure: One of the expected effects of introducing nitrogen substitutions on combretastatin and isocombretastatin analogues, is an increase in aqueous solubility. Solubility was spectrophotometrically determined in phosphate buffer at pH 7. UV absorbance of soluble compounds was measured after shaking and microfiltration. […] In addition, aqueous solubilities of the corresponding ammonium salts are over 1 mg/mL.
# This great improvement is probably due to the symmetry reduction, combined with an increased polarity for 2g.
# Compounds were stirred in a solution of phosphate buffer at pH 7.0 (1–2 mg of compound in 300 µL of buffer) during 48 h. After that, the samples were filtered over a […] filter to discard the insoluble residues. In order to determine the maximum wavelength of absorbance for each compound, a scan between 270 and 400 nm was performed. Once the wavelength was selected, a calibration line was performed and the concentration of the stirred and filtered samples was measured.
# [2] = test system: HeLa cervix epithelioid carcinoma; assay: MTT cell antiproliferative assay, HeLa; type: cell-based; settings: Homo sapiens, 72 h
# Procedure: (§1) The in vitro antiproliferative activity of the synthesized compounds was evaluated by a colorimetric reaction, using the MTT reagent. They were tested against three different human tumor cell lines: HeLa cervix epithelioid carcinoma, HT-29 colon adenocarcinoma, and MCF-7 breast adenocarcinoma. […] Moving the alkylamino substituent from a para to a meta position with respect to the bridge results in potency reduction, except for the phenstatin analogue 1f. However, the introduction of a nitrogen atom to form 2-dimethylaminopyridine derivatives entails a loss of activity, both for phenstatin analogues (1b, 2b), while for isocombretastatins, it only involves a 2–3 times potency decrease (3b). For combretastatins, it implies an improvement in the cytotoxicity values down to tenths of nanomolar (8b). […] On the other hand, the best 2-dimethylaminopyridine was combretastatin 8b. All ammonium salts derivatives were not cytotoxic at micromolar concentrations.
# (§2) HeLa (human cervical carcinoma) and MCF-7 (human breast carcinoma) cell lines were cultured in Dulbecco’s Modified Eagles Medium (DMEM) supplemented with 2 mM L-glutamine (Lonza-Cambrex, Karlskoga, Sweden), 10% (v/v) heat inactivated fetal bovine serum (HIFBS) (Lonza-Cambrex) and 100 μg/mL streptomycin-100 IU/mL penicillin (Lonza-Cambrex) at 37 °C in humidified 95% air and 5% CO2. HT-29 (human colon carcinoma) cells were cultured at 37 °C in complete RPMI 1640 medium containing 2 mM L-glutamine, 10% (v/v) HIFBS and 100 μg/mL streptomycin-100 IU/mL penicillin in humidified 95% air and 5% CO2 atmosphere.
# (§3) The effect of the different compounds on the proliferation of human cell lines was determined by using the MTT (3-[4,5-dimethylthiazol-2-yl]-2,5-diphenyltetrazolium bromide) reagent (MTT Thiazolyl Blue Tetrazolium Bromide, Sigma-Aldrich, St. Louis, MO, USA) dissolved in PBS 5 mg/mL. Cell viability was evaluated seeding 100 µL of cells in exponential growth phase with appropriate cell line concentration (1.5 × 10^4 HeLa and MCF-7 cells/mL and 3 × 10^4 HT-29 cells/mL) in complete medium in 96-well plates at 37 °C and 5% CO2. After 24 h incubation to allow cells to attach to the plates the ligands were added at different concentrations from 10^−5 to 10^−9 M. The effect on the proliferation was evaluated 72 h post-treatment by adding the MTT reagent (10 µL/well) to a final concentration of 0.5 mg/mL and the plate was further incubated for another 3 h. After this period, the supernatant was removed, the MTT violet crystals formed on the bottom of each well were dissolved in DMSO (100 µL/well) and subsequently, the absorbance of the color complex was read at 570 nm using a multi-well plate reader. Compounds were dissolved in dimethyl sulfoxide (DMSO) and the final solvent concentrations never exceeded 0.5% (v/v). The control wells included treated cells with 0.5% (v/v) DMSO and the positive control. Measurements were performed in triplicate, and each experiment was repeated three times. […] Nonlinear curves fitting the experimental data were carried out for each compound.
# [3] = test system: HT-29 colon adenocarcinoma; assay: MTT cell antiproliferative assay, HT-29 (without or with verapamil); type: cell-based, human; settings: for pIC50: Homo sapiens, HT-29, MTT, 72 h
# Procedure: as §1
# As observed in Table 1, there are no significant changes in the IC50 values for most compounds, except for combretastatins 8a and 8i.
# Acquired resistance to antitumor drugs is one of the more important problems of chemotherapy, also affecting tubulin-targeting drugs. In order to ascertain the impact of multidrug resistance phenotypes on the action of the compounds, we have measured the cell proliferation inhibitory activity of HT-29 cells in the presence of verapamil, a known P-glycoprotein 1/multidrug resistance protein 1 (MDR1) inhibitor at a concentration of 10 µM, not affecting cell proliferation. […] Except for the combretastatin analogues 8a and 8i, the affected drugs are all pyridine drugs.
# as §2, §3
# [4] = test system: Bovine brain microtubule protein (MTP); assay: Tubulin polymerization inhibition assay (turbidimetry); type: biochemical; settings: 1.5 mg/mL MTP; IC50 calculated only if more than 50% inhibition at 20 µM; read-out: TPI IC50
# Procedure: Bovine brain microtubule protein (MTP) was isolated as previously described. Briefly, it was purified according to the modified Shelanski method by two cycles of temperature-dependent assembly/disassembly.
# Tubulin polymerization was monitored using a Helios α spectrophotometer by measuring the increase in turbidity at 450 nm, caused by a shift from 4 °C to 37 °C, which allows the in vitro MTP self-disassembly and assembly respectively. […] Firstly, ligands at 20 µM concentration, were incubated with 1.5 mg/mL MTP at 20 °C for 30 min and subsequently cooled on ice for 10 min. Then, the experiment starts at 4 °C to establish the initial baseline. The assembly process was initiated by shifting of the temperature to 37 °C and the turbidity produced can be measured by an absorbance increase. After reaching a stable plateau, the temperature was switched back to 4 °C to return to the initial absorption values. The difference in amplitude between the stable plateau and the initial baseline of the curves was taken as the degree of tubulin polymerization for each experiment. […] All the measurements were carried out in at least two independent experiments using MTP from different isolation.
# [5] = test system: MCF-7 breast adenocarcinoma; assay: MTT cell antiproliferative assay, MCF-7; type: cell-based; settings: Homo sapiens, MCF7, 72 h
# Procedure: as §1, §2, §3
# [6] = test system: HeLa, HT-29 and MCF-7 human tumor cell lines; assay: Antiproliferative activity over the three human tumor cell lines (MTT); type: cell-based; settings: Homo sapiens, range over the cell lines, Table S1; read-out: Cytotoxicity range (range of antiproliferative IC50 values)
# Procedure: as §1
# The antiproliferative activity of the compounds against three human tumor cell lines of different origins (i.e., HeLa cervix epithelioid carcinoma, HT-29 colon adenocarcinoma and MCF-7 breast adenocarcinoma) was evaluated by the MTT method. […] This high success rate is the result of a combination of favorable scaffolds and substituents, and it is similar to those of previous reports on related series. […] We have previously observed the same trend for related compounds acting at the colchicine site of tubulin [10, 23]. For this pyridine series, we observed a different potency trend when we compare the 4-amino-3-pyridine and the 3-amino-4-pyridine derivatives. […] This different behavior is probably a reflection of their different shape, combined with the different geometries imposed by different bridges. We have previously shown that the potency ordering isocombretastatins similar to oximes higher than benzophenones could be explained by the higher conjugation of the ketones with the aromatic rings, which imposes a more planar disposition than those required for high affinity colchicine site binding. For the 3-amino-4-pyridine series, more planar structures are required in order to avoid the bumping of the amino substituents with tubulin out the plane of the aromatic ring, an effect which we have previously shown to impact the potency of 3-substituted indolecombretastatins and dimethylaminophenyl phenstatins. This different geometrical disposition of the amino substituents, and the different adaptability of their corresponding pockets in the two series, can also account for the preference of bulkier substituents at position 3, such as the pyrrolidine rather than the smaller dimethylamino. […] The opposite is observed for the 4-dimethylaminophenyl phenstatins 1a and 1b. […] The remarkable levels of solubility achieved for the quaternary ammonium salts came unfortunately at the expenses of biological activity.
# The effect of the different compounds on the proliferation of human cell lines was determined by using the MTT (3-[4,5-dimethylthiazol-2-yl]-2,5-diphenyltetrazolium bromide) reagent (MTT Thiazolyl Blue Tetrazolium Bromide, Sigma-Aldrich, St. Louis, MO, USA) dissolved in PBS 5 mg/mL. Cell viability was evaluated seeding 100 µL of cells in exponential growth phase with appropriate cell line concentration (1.5 × 10^4 HeLa and MCF-7 cells/mL and 3 × 10^4 HT-29 cells/mL) in complete medium in 96-well plates at 37 °C and 5% CO2. After 24 h incubation to allow cells to attach to the plates the ligands were added at different concentrations from 10^−5 to 10^−9 M. The effect on the proliferation was evaluated 72 h post-treatment by adding the MTT reagent (10 µL/well) to a final concentration of 0.5 mg/mL and the plate was further incubated for another 3 h. […]
# [7] = test system: rat primary pancreatic cells; assay: Toxicity against rat primary pancreatic cells (MTT); settings: 0.05 µM, 7 h
# Procedure: The toxicity of the compounds against rat primary pancreatic cells was evaluated by the MTT protocol (Table 2). […] Sodium taurocholate (NaTc) was also used at high concentrations as a model of acute pancreatitis in vitro.
# Rat primary pancreatic cells were isolated as previously described. Afterwards, pancreatic cells were resuspended in Na-HEPES solution (pH 7.4) containing 14 mM glucose, 1% essential amino acid mixture, 1% (w/v) BSA, 0.01% (w/v) STI, 0.5 mM CaCl2 and incubated (5% CO2, at 37 °C) for 7 h in the absence (non-treated control) or the presence of compounds at different concentrations. After the treatment, cells were incubated (5% CO2, at 37 °C) with 0.5 mg/mL MTT for 2 h and the formazan crystals were solubilized with DMSO (v/v). The optical density was read at 570 nm with a reference wavelength of 630 nm. Non-treated cell viability was set as 100%.
# [8] = aqueous buffer, phosphate buffer pH 7.0, 48 h stirring, filtered, UV, read-out: Solub.
# [9] = phosphate buffer, pH 7, aqueous buffer, phosphate buffer pH 7.0, 48 h stirring, filtered, UV, read-out: Solub.
Structure (SMILES),pIC50 [2],pIC50 [3],pIC50 [4],"solubility at 48 h [1, 9] [µg/mL]",improvement of HT-29 IC50 after verapamil treatment ([3]; 10 µM verapamil) [fold],pIC50 [5],"solubility at 48 h ([1]; phosphate buffer, pH 7, aqueous buffer, phosphate buffer pH 7, stated in text, read-out: aqueous solubility) [µg/mL]","solubility at 48 h [1, 8] [µg/mL]",pIC50 [6],live cells with respect to the non-treated control (means ± S.E.M.) [7] [%],"Solub. ([1]; phosphate buffer pH 7.0, 48 h stirring, filtered, UV) [µg/mL]"
"C=C(c1ccc(N(C)C)cc1)c1cc(OC)c(OC)c(OC)c1 [Compound 3a, N,N-Dimethyl-4-(1-(3,4,5-trimethoxyphenyl)vinyl)aniline]",7.40,7.15,5.72,–,–,–,–,30,–,–,–
"COc1cc(C(=NO)c2ccc(N(C)C)cc2)cc(OC)c1OC [Compound 2a, (4-(Dimethylamino)phenyl)(3,4,5-trimethoxyphenyl)methanone oxime]",6.10,6.00,< 4.70,–,–,–,–,74,–,–,–
"CC(=O)O[C@H]1C[C@H](O[C@H]2[C@@H](O)C[C@H](O[C@H]3[C@@H](O)C[C@H](O[C@H]4CC[C@@]5(C)[C@H](CC[C@@H]6[C@@H]5C[C@@H](O)[C@]5(C)[C@@H](C7=CC(=O)OC7)CC[C@]65O)C4)O[C@@H]3C)O[C@@H]2C)O[C@H](C)[C@H]1O [Acetyldigoxin, acetyl-digoxin, reference compound]",–,–,–,–,–,–,–,–,–,84.41 ± 9.64,–
"COc1cc(C(=O)c2ccc(N(C)C)cc2)cc(OC)c1OC [Compound 1a, (4-(Dimethylamino)phenyl)(3,4,5-trimethoxyphenyl)methanone]",7.05,6.40,< 4.70,–,–,–,–,–,–,–,48
"COc1ccc(C(=O)c2ccc(N(C)C)cc2)c(OC)c1OC [Compound 1d, (4-(Dimethylamino)phenyl)(2,3,4-trimethoxyphenyl)methanone]",6.38,6.30,< 4.70,–,–,6.39,–,–,6.19 to 6.39,–,–

# Second part, led by results:
pIC50 [2],pIC50 [3],pIC50 [4],"solubility at 48 h [1, 9] [µg/mL]",improvement of HT-29 IC50 after verapamil treatment ([3]; 10 µM verapamil) [fold],pIC50 [5],"solubility at 48 h ([1]; phosphate buffer, pH 7, aqueous buffer, phosphate buffer pH 7, stated in text, read-out: aqueous solubility) [µg/mL]",Structure (SMILES),"solubility at 48 h [1, 8] [µg/mL]",pIC50 [6],live cells with respect to the non-treated control (means ± S.E.M.) [7] [%],"Solub. ([1]; phosphate buffer pH 7.0, 48 h stirring, filtered, UV) [µg/mL]"
6.59,6.32,< 4.70,62,> 2,6.50,–,"C=C(c1ccnc(N2CCCC2)c1)c1cc(OC)c(OC)c(OC)c1 [Compound 3h, 2-(Pyrrolidin-1-yl)-4-(1-(3,4,5-trimethoxyphenyl)vinyl)pyridine]",–,6.32 to 6.64,–,–
6.00,5.40,< 4.70,–,–,5.70,–,"C=C(c1ccc(N(C)C)cc1)c1ccc(OC)c(OC)c1OC [Compound 3d, N,N-dimethyl-4-(1-(2,3,4-trimethoxyphenyl)vinyl)aniline]",–,< 6.00,–,–
5.80,5.29,< 4.70,–,–,5.63,–,"COc1cc(C(=O)c2ccc(N3CCCC3)nc2)cc(OC)c1OC [Compound 1c, (6-(Pyrrolidin-1-yl)pyridin-3-yl)(3,4,5-trimethoxyphenyl)methanone]",–,< 6.00,–,–
6.41,6.50,< 4.70,33.8,–,6.65,–,"COc1cc(C(=O)c2ccnc(N(C)C)c2)cc(OC)c1OC [Compound 1g, (2-(Dimethylamino)pyridin-4-yl)(3,4,5-trimethoxyphenyl)methanone]",–,6.41 to 6.65,–,–
6.39,6.40,< 4.70,136,–,6.44,–,"C=C(c1ccnc(N(C)C)c1)c1cc(OC)c(OC)c(OC)c1 [Compound 3g, N,N-Dimethyl-4-(1-(3,4,5-trimethoxyphenyl)vinyl)pyridin-2-amine]",–,–,–,–
6.27,5.47,< 4.70,583,–,6.39,~600,"COc1cc(C(=NO)c2ccnc(N(C)C)c2)cc(OC)c1OC [Compound 2g, (2-(Dimethylamino)pyridin-4-yl)(3,4,5-trimethoxyphenyl)methanone oxime]",–,–,–,–
